Data reported in PubChem BioAssay (NCI).
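Exposure lasted 48 hours, with cells grown in 96-well plates and compounds tested at five concentrations. TGI marks complete inhibition of growth.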

Columns and labels:
Assay in all cases: DTP human tumour cell line panel, 48 h
786-0 renal = tested on: 786-0 renal
A498 renal = tested on: A498 renal
A549 NSCLC = tested on: A549 NSCLC
ACHN renal = tested on: ACHN renal
CCRF-CEM leukemia = tested on: CCRF-CEM leukemia
COLO 205 colon = tested on: COLO 205 colon
HCT-116 colon = tested on: HCT-116 colon
HOP-62 NSCLC = tested on: HOP-62 NSCLC
M14 melanoma = tested on: M14 melanoma
MDA-MB-231 breast = tested on: MDA-MB-231 breast
MOLT-4 leukemia = tested on: MOLT-4 leukemia
OVCAR-3 ovarian = tested on: OVCAR-3 ovarian
SN12C renal = tested on: SN12C renal
T-47D breast = tested on: T-47D breast
U251 CNS = tested on: U251 CNS
UACC-257 melanoma = tested on: UACC-257 melanoma
OVCAR-8 ovarian = tested on: OVCAR-8 ovarian
RXF 393 renal = tested on: RXF 393 renal
NCI-H522 lung = tested on: NCI-H522 lung
OVCAR-4 ovarian = tested on: OVCAR-4 ovarian

`Cc1cc(C)c(C(=O)c2nnc3ccccc3c2N)c(C)c1` was tested, and the TGI (786-0 renal) was 32.2 µM, the TGI (A498 renal) was over 100 µM and the TGI (A549 NSCLC) was over 100 µM. The TGI (ACHN renal) was over 100 µM, the TGI (CCRF-CEM leukemia) was over 100 µM and the TGI (COLO 205 colon) was 30.2 µM. It also gave a TGI (HCT-116 colon) of 23.6 µM, a TGI (HOP-62 NSCLC) of 32.9 µM and a TGI (M14 melanoma) of 34 µM. The TGI (MDA-MB-231 breast) was 63.8 µM, the TGI (MOLT-4 leukemia) was over 100 µM and the TGI (OVCAR-3 ovarian) was 36.6 µM. For the same molecule, the TGI (SN12C renal) was 38.5 µM, the TGI (T-47D breast) was 56.6 µM and the TGI (U251 CNS) was over 100 µM. For the same molecule, the TGI (UACC-257 melanoma) was over 100 µM.
`O=C(O)C1C2C=CC(C2)C1c1ccccc1` (configuration not stated) showed a TGI (786-0 renal) of over 100 µM, a TGI (A498 renal) of over 100 µM and a TGI (A549 NSCLC) of over 100 µM. It also gave a TGI (ACHN renal) of over 100 µM, a TGI (CCRF-CEM leukemia) of over 100 µM and a TGI (COLO 205 colon) of over 100 µM. For the same molecule, the TGI (HCT-116 colon) was over 100 µM, the TGI (HOP-62 NSCLC) was over 100 µM and the TGI (M14 melanoma) was over 100 µM. It also gave a TGI (MDA-MB-231 breast) of over 100 µM, a TGI (MOLT-4 leukemia) of over 100 µM and a TGI (OVCAR-3 ovarian) of over 100 µM. For the same molecule, the TGI (OVCAR-8 ovarian) was over 100 µM, the TGI (RXF 393 renal) was over 100 µM and the TGI (SN12C renal) was over 100 µM. It also gave a TGI (T-47D breast) of over 100 µM, a TGI (U251 CNS) of over 100 µM and a TGI (UACC-257 melanoma) of over 100 µM.
With `COc1cc(N(CCC#N)CCC#N)ccc1/C(N=Nc1ccccc1C)=N\NC(=O)c1ccc(C)cc1` the TGI (786-0 renal) was over 100 µM, the TGI (A549 NSCLC) was over 100 µM and the TGI (CCRF-CEM leukemia) was 40.3 µM. For the same molecule, the TGI (COLO 205 colon) was over 100 µM, the TGI (HCT-116 colon) was over 100 µM and the TGI (HOP-62 NSCLC) was over 100 µM. For the same molecule, the TGI (M14 melanoma) was over 100 µM, the TGI (MDA-MB-231 breast) was over 100 µM and the TGI (MOLT-4 leukemia) was over 100 µM. It also gave a TGI (NCI-H522 lung) of over 100 µM, a TGI (OVCAR-3 ovarian) of over 100 µM and a TGI (OVCAR-4 ovarian) of over 100 µM. It also gave a TGI (OVCAR-8 ovarian) of over 100 µM, a TGI (RXF 393 renal) of over 100 µM and a TGI (SN12C renal) of over 100 µM. For the same molecule, the TGI (T-47D breast) was over 100 µM, the TGI (U251 CNS) was over 100 µM and the TGI (UACC-257 melanoma) was over 100 µM.
With `COC(=O)C1(C(=O)OC)C/C(C)=C(/C)SCCCS1` the TGI (786-0 renal) was over 100 µM, the TGI (A549 NSCLC) was over 100 µM and the TGI (ACHN renal) was over 100 µM. The TGI (CCRF-CEM leukemia) was over 100 µM, the TGI (COLO 205 colon) was over 100 µM and the TGI (HCT-116 colon) was over 100 µM. For the same molecule, the TGI (HOP-62 NSCLC) was over 100 µM, the TGI (M14 melanoma) was over 100 µM and the TGI (MDA-MB-231 breast) was over 100 µM. For the same molecule, the TGI (MOLT-4 leukemia) was over 100 µM, the TGI (NCI-H522 lung) was over 100 µM and the TGI (OVCAR-3 ovarian) was over 100 µM. For the same molecule, the TGI (OVCAR-4 ovarian) was over 100 µM, the TGI (OVCAR-8 ovarian) was over 100 µM and the TGI (RXF 393 renal) was over 100 µM. It also gave a TGI (SN12C renal) of over 100 µM, a TGI (T-47D breast) of over 100 µM and a TGI (U251 CNS) of over 100 µM. It also gave a TGI (UACC-257 melanoma) of over 100 µM.
Work on `c1ccc(NN=C(c2ccccn2)c2ccccn2)nc1` yielded a TGI (786-0 renal) of over 100 µM, a TGI (A498 renal) of 7.11 µM and a TGI (A549 NSCLC) of over 21 µM. For the same molecule, the TGI (ACHN renal) was over 100 µM, the TGI (COLO 205 colon) was over 100 µM and the TGI (HCT-116 colon) was over 100 µM. For the same molecule, the TGI (MDA-MB-231 breast) was over 100 µM, the TGI (NCI-H522 lung) was over 100 µM and the TGI (OVCAR-3 ovarian) was over 100 µM. It also gave a TGI (OVCAR-4 ovarian) of over 100 µM, a TGI (OVCAR-8 ovarian) of over 100 µM and a TGI (RXF 393 renal) of over 100 µM. The TGI (SN12C renal) was over 100 µM, the TGI (U251 CNS) was over 61.9 µM and the TGI (UACC-257 melanoma) was over 100 µM.
With `O=C(O)c1nc2ccc(C(F)(F)F)cc2nc1NCc1ccc(F)cc1` the TGI (786-0 renal) was 28 µM, the TGI (A498 renal) was 55.4 µM and the TGI (A549 NSCLC) was 42.2 µM. For the same molecule, the TGI (ACHN renal) was over 100 µM, the TGI (CCRF-CEM leukemia) was over 100 µM and the TGI (COLO 205 colon) was 44.6 µM. The TGI (HCT-116 colon) was 29.4 µM, the TGI (HOP-62 NSCLC) was 46.1 µM and the TGI (M14 melanoma) was 61.7 µM. For the same molecule, the TGI (MDA-MB-231 breast) was 81.4 µM, the TGI (MOLT-4 leukemia) was 33.2 µM and the TGI (OVCAR-3 ovarian) was 33.2 µM. It also gave a TGI (OVCAR-4 ovarian) of over 100 µM, a TGI (OVCAR-8 ovarian) of 55.7 µM and a TGI (RXF 393 renal) of over 100 µM. For the same molecule, the TGI (SN12C renal) was 35.4 µM, the TGI (T-47D breast) was over 100 µM and the TGI (U251 CNS) was 56.9 µM. For the same molecule, the TGI (UACC-257 melanoma) was 76.2 µM.
In the case of `COC1=CC2C(c3cc4ccccc4n3S(=O)(=O)c3ccccc3)CC1CN2C(=O)OCc1ccccc1` (configuration not stated), the TGI (786-0 renal) is reported as over 100 µM, the TGI (A549 NSCLC) is reported as over 100 µM and the TGI (ACHN renal) is reported as over 100 µM. It also gave a TGI (CCRF-CEM leukemia) of over 100 µM, a TGI (COLO 205 colon) of 31.2 µM and a TGI (HCT-116 colon) of over 100 µM. The TGI (HOP-62 NSCLC) was over 100 µM, the TGI (M14 melanoma) was 51.2 µM and the TGI (MDA-MB-231 breast) was 58.7 µM. The TGI (NCI-H522 lung) was 52.9 µM, the TGI (OVCAR-3 ovarian) was over 100 µM and the TGI (OVCAR-4 ovarian) was over 100 µM. For the same molecule, the TGI (OVCAR-8 ovarian) was over 100 µM, the TGI (RXF 393 renal) was 69.2 µM and the TGI (SN12C renal) was over 100 µM. The TGI (U251 CNS) was over 100 µM and the TGI (UACC-257 melanoma) was over 100 µM.
